Values of other authors in US20120142750A1, “INDOLEAMINE 2,3-DIOXYGENASE PATHWAYS IN THE GENERATION OF REGULATORY T CELLS” (Regents of the University of Minnesota, priority 2005, published 2012).

Target: IDO (Homo sapiens, UniProt P14902)
Conditions: approximate literature value; cited from earlier work

Sequence of IDO (P14902 whole entry): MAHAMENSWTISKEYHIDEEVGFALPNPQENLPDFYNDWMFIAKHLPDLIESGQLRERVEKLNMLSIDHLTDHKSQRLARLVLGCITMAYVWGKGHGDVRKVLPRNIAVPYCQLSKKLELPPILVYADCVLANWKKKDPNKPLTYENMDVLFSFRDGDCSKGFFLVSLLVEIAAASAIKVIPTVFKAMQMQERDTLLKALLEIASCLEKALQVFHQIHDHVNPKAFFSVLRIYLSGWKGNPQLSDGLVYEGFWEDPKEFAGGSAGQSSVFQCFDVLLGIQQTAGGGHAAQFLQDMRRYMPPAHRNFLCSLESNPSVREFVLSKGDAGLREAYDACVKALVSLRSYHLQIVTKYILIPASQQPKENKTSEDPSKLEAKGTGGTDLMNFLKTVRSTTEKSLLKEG

For `O=C1C2=C(Nc3cc([N+](=O)[O-])ccc3N2)OC1c1ccc(C2OC3=C(Nc4ccc([N+](=O)[O-])cc4N3)C2=O)cc1` (stereo not shown) [Inhibitor V], the EC50 is given as about 1000 nM.
